Laboratory results from patent publication US5654427A, “Indolocarbazole derivatives to treat a pathological condition of the prostate” (Kyowa Hakko Kogyo Co., Ltd., priority 1995, dated 1997).

How the values were obtained:
PC-3 = assay: growth inhibition of PC-3 prostate cancer cells (calcein fluorescence); assay type: cell-based; conditions: Homo sapiens, PC-3, 72 h; 3 days incubation; read-out: PC-3 IC50
Method: Throughout the experiment the Tsu-Pr1 and Du-Pro1 cells were maintained in RPMI 1640 medium (GIBCO) containing 10% fetal bovine serum (Hyclone), 2 mM glutamine, 100 U/ml penicillin, and 100 μg/ml streptomycin. The PC-3 cells were maintained in Ham's F12K medium (Irvine Scientific) containing 10% fetal bovine serum (Hyclone), 2 mM glutamine, 100 U/ml penicillin, and 100 μg/ml streptomycin. All cell lines were maintained at 37° C. in a humidified atmosphere containing 5% CO2. The DU-145 cells were maintained in minimal essential medium (Gibco), containing 10% fetal bovine serum (Hyclone), 2 mM glutamine, and no antibiotics.
Tests for growth inhibition by the candidate compounds were conducted by the following procedure. In each well of a 96-well plate (Falcon) were placed 2,500 cells in 0.1 ml of medium. The cultures were incubated overnight after which a 0.1 ml aliquot of culture medium was added to each well. […] Other control wells received medium without any K-252a derivative compounds. Incubation was continued for three days. On day three the number of cells in each well was measured using a calcein fluorescence assay (Bozyczko-Coyne et al. J. Neurosci. Meth. 50, 205-216 (1993)).
Calcein AM (Molecular Probes, Eugene, Oreg.), an analog of the viable dye fluorescein diacetate, is taken up by cells and cleaved intracellularly to fluorescent salts that are retained by intact membranes of viable cells. This method thus provides a reliable and quantitative measurement of cell survival. Calcein AM was diluted 2× in Dulbeccos phosphate buffered saline (D-PBS) to 2× the final assay concentration (6 μM) and 100 μl was added to culture wells containing 100 μl of medium. The plates were then incubated for 1 hour at 37° C. Cells were then washed 4 times with D-PBS to remove excess calcein not taken up by cells. The plate was read using a Millipore plate reading fluorimeter (Cytofluor 2350) at emission=485 nm and excitation=538 nm. After subtraction of blank values (wells containing medium but no cells), relative fluorescent values reflect a quantitative measurement of cell survival. […]

prostate glands = assay: inhibition of prostate growth in sexually immature mice (weight of prostate glands); assay type: in vivo; conditions: for Ventral Prostate weight / Dorsal Prostate weight / Coagulat-ing Glands weight / Seminal Vesicles weight: Table 6; for Ventral Prostate weight: TEPBS 14.0 ± 0.8; for Dorsal Prostate weight: TEPBS 14.6 ± 1.4; for Coagulat-ing Glands weight: TEPBS 29.6 ± 2.0; for Seminal Vesicles weight: TEPBS 71.4 ± 2.4
Text: The following animal model can be used to test the efficacy of a functional derivative for treatment of a proliferative prostate condition. Sexually immature male mice of 15-20 g each (Charles River Laboratories, Raleigh, N.C.) were used in the following in vivo study. The mice were allowed at least 3 days after purchase to acclimate before being used in any experiments.
Each test group contained 12 mice. […] At the end of the 21 day dosing period the mice were sacrificed and whole body blood, dorsal prostate, ventral prostate, coagulating glands, seminal vesicles, heart, liver, stomach, lung, kidneys and testes were collected separately and weighed.

Question: What does the source list for COC1(CO)CC2OC1(C)n1c3ccccc3c3c4c(c5c6ccccc6n2c5c31)C(=O)NC4 (centres unmarked) [Compound I-19]?
Answer: IC50 (PC-3): 5 µM; weights of ventral prostate, dorsal prostate, seminal vesicles, and coagulating glands, in words (prostate glands; 1 mg/kg): significantly reduced the weights of ventral prostate, dorsal prostate, seminal vesicles, and coagulating glands; weights of ventral prostate, dorsal prostate, seminal vesicles, and coagulating glands, in words (prostate glands; 10 mg/kg): significantly reduced the weights of ventral prostate, dorsal prostate, seminal vesicles, and coagulating glands; Ventral Prostate weight (prostate glands; 1 mg/kg): 11.0 ± 0.9 mg; Dorsal Prostate weight (prostate glands; 1 mg/kg): 10.4 ± 0.9 mg; Coagulat-ing Glands weight (prostate glands; 1 mg/kg): 24.6 ± 1.4 mg; Seminal Vesicles weight (prostate glands; 1 mg/kg): 60.0 ± 2.2 mg; Ventral Prostate weight (prostate glands; 10 mg/kg): 10.5 ± 0.6 mg; Dorsal Prostate weight (prostate glands; 10 mg/kg): 7.2 ± 0.8 mg; Coagulat-ing Glands weight (prostate glands; 10 mg/kg): 23.6 ± 0.8 mg; Seminal Vesicles weight (prostate glands; 10 mg/kg): 52.0 ± 2.0 mg
